Measurements as given in ChEMBL document CHEMBL1147101, “Development and persistence of antimicrobial resistance in Pseudomonas aeruginosa: a longitudinal observation in mechanically ventilated patients” (Antimicrob Agents Chemother, 2007).
Activity calls are given as the source filed them.

Key:
Assay type in all cases: functional, organism-based
Details in all cases: Trachea
Pseudomonas aeruginosa [1] = test: Antimicrobial activity against Pseudomonas aeruginosa 65.36-4 tracheal isolates from mechanically ventilated tuberculosis patient
Pseudomonas aeruginosa [2] = test: Antimicrobial activity against Pseudomonas aeruginosa 1B9 tracheal isolates from mechanically ventilated tuberculosis patient
Pseudomonas aeruginosa [3] = test: Antimicrobial activity against Pseudomonas aeruginosa 19E2 tracheal isolates from mechanically ventilated chronic respiratory insufficiency patient
Pseudomonas aeruginosa [4] = test: Antimicrobial activity against Pseudomonas aeruginosa 8C4 tracheal isolates from mechanically ventilated chronic respiratory insufficiency patient
Pseudomonas aeruginosa [5] = test: Antimicrobial activity against Pseudomonas aeruginosa 5F2 tracheal isolates from mechanically ventilated chronic respiratory insufficiency patient
Pseudomonas aeruginosa [6] = test: Antimicrobial activity against Pseudomonas aeruginosa 65.33-4 tracheal isolates from mechanically ventilated tuberculosis patient
Pseudomonas aeruginosa [7] = test: Antimicrobial activity against Pseudomonas aeruginosa 8B11 tracheal isolates from mechanically ventilated chronic respiratory insufficiency patient
Pseudomonas aeruginosa [8] = test: Antimicrobial activity against Pseudomonas aeruginosa 3D10 tracheal isolates from mechanically ventilated chronic respiratory insufficiency patient
Pseudomonas aeruginosa [9] = test: Antimicrobial activity against Pseudomonas aeruginosa 5H6 tracheal isolates from mechanically ventilated chronic respiratory insufficiency patient
Pseudomonas aeruginosa [10] = test: Antimicrobial activity against Pseudomonas aeruginosa 29F6 tracheal isolates from mechanically ventilated chronic respiratory insufficiency patient
Pseudomonas aeruginosa [11] = test: Antimicrobial activity against Pseudomonas aeruginosa 24G1 tracheal isolates from mechanically ventilated chronic respiratory insufficiency patient
Pseudomonas aeruginosa [12] = test: Antimicrobial activity against Pseudomonas aeruginosa 9A10 tracheal isolates from mechanically ventilated chronic respiratory insufficiency patient
Pseudomonas aeruginosa [13] = test: Antimicrobial activity against Pseudomonas aeruginosa 12B2 tracheal isolates from mechanically ventilated chronic respiratory insufficiency patient
Pseudomonas aeruginosa [14] = test: Antimicrobial activity against Pseudomonas aeruginosa 19D9 tracheal isolates from mechanically ventilated chronic respiratory insufficiency patient
Pseudomonas aeruginosa [15] = test: Antimicrobial activity against Pseudomonas aeruginosa 15H5 tracheal isolates from mechanically ventilated chronic respiratory insufficiency patient
Pseudomonas aeruginosa [16] = test: Antimicrobial activity against Pseudomonas aeruginosa 9A3 tracheal isolates from mechanically ventilated chronic respiratory insufficiency patient
Pseudomonas aeruginosa [17] = test: Antimicrobial activity against Pseudomonas aeruginosa 24E5 tracheal isolates from mechanically ventilated chronic respiratory insufficiency patient
Pseudomonas aeruginosa [18] = test: Antimicrobial activity against Pseudomonas aeruginosa 2A7 tracheal isolates from mechanically ventilated tuberculosis patient
Pseudomonas aeruginosa [19] = test: Antimicrobial activity against Pseudomonas aeruginosa 2C2 tracheal isolates from mechanically ventilated tuberculosis patient
Pseudomonas aeruginosa [20] = test: Antimicrobial activity against Pseudomonas aeruginosa 9A1 tracheal isolates from mechanically ventilated chronic respiratory insufficiency patient
Pseudomonas aeruginosa [21] = test: Antimicrobial activity against Pseudomonas aeruginosa 8A2 tracheal isolates from mechanically ventilated chronic respiratory insufficiency patient
Pseudomonas aeruginosa [22] = test: Antimicrobial activity against Pseudomonas aeruginosa 9B5 tracheal isolates from mechanically ventilated chronic respiratory insufficiency patient
Pseudomonas aeruginosa [23] = test: Antimicrobial activity against Pseudomonas aeruginosa 13E1 tracheal isolates from mechanically ventilated chronic respiratory insufficiency patient
Pseudomonas aeruginosa [24] = test: Antimicrobial activity against Pseudomonas aeruginosa 12A3 tracheal isolates from mechanically ventilated chronic respiratory insufficiency patient
Pseudomonas aeruginosa [25] = test: Antimicrobial activity against Pseudomonas aeruginosa 65.36-1 tracheal isolates from mechanically ventilated tuberculosis patient
Pseudomonas aeruginosa [26] = test: Antimicrobial activity against Pseudomonas aeruginosa 12A7 tracheal isolates from mechanically ventilated chronic respiratory insufficiency patient
Pseudomonas aeruginosa [27] = test: Antimicrobial activity against Pseudomonas aeruginosa 2F6 tracheal isolates from mechanically ventilated tuberculosis patient
Pseudomonas aeruginosa [28] = test: Antimicrobial activity against Pseudomonas aeruginosa 2C1 tracheal isolates from mechanically ventilated tuberculosis patient
Pseudomonas aeruginosa [29] = test: Antimicrobial activity against Pseudomonas aeruginosa 2A5 tracheal isolates from mechanically ventilated chronic respiratory insufficiency patient
Pseudomonas aeruginosa [30] = test: Antimicrobial activity against Pseudomonas aeruginosa 10B3 tracheal isolates from mechanically ventilated chronic respiratory insufficiency patient
Pseudomonas aeruginosa [31] = test: Antimicrobial activity against Pseudomonas aeruginosa 65.68-4 tracheal isolates from mechanically ventilated tuberculosis patient
Pseudomonas aeruginosa [32] = test: Antimicrobial activity against Pseudomonas aeruginosa 3B1 tracheal isolates from mechanically ventilated tuberculosis patient
Pseudomonas aeruginosa [33] = test: Antimicrobial activity against Pseudomonas aeruginosa 19E9 tracheal isolates from mechanically ventilated chronic respiratory insufficiency patient
Pseudomonas aeruginosa [34] = test: Antimicrobial activity against Pseudomonas aeruginosa 19C7 tracheal isolates from mechanically ventilated chronic respiratory insufficiency patient
Pseudomonas aeruginosa [35] = test: Antimicrobial activity against Pseudomonas aeruginosa 2A2 tracheal isolates from mechanically ventilated tuberculosis patient
Pseudomonas aeruginosa [36] = test: Antimicrobial activity against Pseudomonas aeruginosa 1A9 tracheal isolates from mechanically ventilated tuberculosis patient
Pseudomonas aeruginosa [37] = test: Antimicrobial activity against Pseudomonas aeruginosa 15G2 tracheal isolates from mechanically ventilated chronic respiratory insufficiency patient
Pseudomonas aeruginosa [38] = test: Antimicrobial activity against Pseudomonas aeruginosa 65.36-2 tracheal isolates from mechanically ventilated tuberculosis patient
Pseudomonas aeruginosa [39] = test: Antimicrobial activity against Pseudomonas aeruginosa 29G8 tracheal isolates from mechanically ventilated chronic respiratory insufficiency patient
Pseudomonas aeruginosa [40] = test: Antimicrobial activity against Pseudomonas aeruginosa 65.68-2 tracheal isolates from mechanically ventilated tuberculosis patient
Pseudomonas aeruginosa [41] = test: Antimicrobial activity against Pseudomonas aeruginosa 29G6 tracheal isolates from mechanically ventilated chronic respiratory insufficiency patient
Pseudomonas aeruginosa [42] = test: Antimicrobial activity against Pseudomonas aeruginosa 29G7 tracheal isolates from mechanically ventilated chronic respiratory insufficiency patient
Pseudomonas aeruginosa [43] = test: Antimicrobial activity against Pseudomonas aeruginosa 8A12 tracheal isolates from mechanically ventilated chronic respiratory insufficiency patient
Pseudomonas aeruginosa [44] = test: Antimicrobial activity against Pseudomonas aeruginosa P21.21 tracheal isolates from mechanically ventilated tuberculosis patient
Pseudomonas aeruginosa [45] = test: Antimicrobial activity against Pseudomonas aeruginosa P21.23 tracheal isolates from mechanically ventilated tuberculosis patient
Pseudomonas aeruginosa [46] = test: Antimicrobial activity against Pseudomonas aeruginosa 22D6 tracheal isolates from mechanically ventilated chronic respiratory insufficiency patient
Pseudomonas aeruginosa [47] = test: Antimicrobial activity against Pseudomonas aeruginosa 22D2 tracheal isolates from mechanically ventilated chronic respiratory insufficiency patient
Pseudomonas aeruginosa [48] = test: Antimicrobial activity against Pseudomonas aeruginosa 2A5 tracheal isolates from mechanically ventilated tuberculosis patient
Pseudomonas aeruginosa [49] = test: Antimicrobial activity against Pseudomonas aeruginosa 19B3 tracheal isolates from mechanically ventilated chronic respiratory insufficiency patient
Pseudomonas aeruginosa [50] = test: Antimicrobial activity against Pseudomonas aeruginosa 10A6 tracheal isolates from mechanically ventilated chronic respiratory insufficiency patient
Pseudomonas aeruginosa [51] = test: Antimicrobial activity against Pseudomonas aeruginosa 10A9 tracheal isolates from mechanically ventilated chronic respiratory insufficiency patient
Pseudomonas aeruginosa [52] = test: Antimicrobial activity against Pseudomonas aeruginosa 3D1 tracheal isolates from mechanically ventilated chronic respiratory insufficiency patient
Pseudomonas aeruginosa [53] = test: Antimicrobial activity against Pseudomonas aeruginosa 65.33-2 tracheal isolates from mechanically ventilated tuberculosis patient
Pseudomonas aeruginosa [54] = test: Antimicrobial activity against Pseudomonas aeruginosa 19B6 tracheal isolates from mechanically ventilated chronic respiratory insufficiency patient
Pseudomonas aeruginosa [55] = test: Antimicrobial activity against Pseudomonas aeruginosa 3E2 tracheal isolates from mechanically ventilated chronic respiratory insufficiency patient
Pseudomonas aeruginosa [56] = test: Antimicrobial activity against Pseudomonas aeruginosa 5G3 tracheal isolates from mechanically ventilated chronic respiratory insufficiency patient
Pseudomonas aeruginosa [57] = test: Antimicrobial activity against Pseudomonas aeruginosa 2A3 tracheal isolates from mechanically ventilated tuberculosis patient
Pseudomonas aeruginosa [58] = test: Antimicrobial activity against Pseudomonas aeruginosa 65.68-1 tracheal isolates from mechanically ventilated tuberculosis patient

Measured: Activity

CO/N=C(\C(=O)N[C@@H]1C(=O)N2C(C(=O)[O-])=C(C[N+]3(C)CCCC3)CS[C@H]12)c1csc(N)n1
inactive: Pseudomonas aeruginosa [1] | Pseudomonas aeruginosa [2] | Pseudomonas aeruginosa [18] | Pseudomonas aeruginosa [27] | Pseudomonas aeruginosa [28]
active: all other assays above
